Data reported in article PMC9069992 (Journal of the American Chemical Society, 2022).
Values belong to the compound of their own block, whether it stands above or below them.

Legend:
GA of HeLa cells = test: CLSM / single cell imaging of fluorescence accumulation at Golgi apparatus; format: cell-based, Homo sapiens; conditions: for accumulation at / targeting of GA (in words): CLSM, fluorescence at GA, Figures S16, S30A, S33, S35-S44; for effect of thioesterase inhibitor on GA accumulation of C6-NBD-Ceramide: Figures S11, S12; for effect of thioesterase inhibitor on accumulation of 1 at GA: by itself or in combination, Figures S4, S9, S10
TEM of self-assembly = format: physicochemical; conditions: 20 μM, Figure S43
NRAS = test: ICC staining of NRAS distribution in MCF-7 cells; format: cell-based, Homo sapiens; conditions: MCF-7, 10 μM, 30 min, ICC staining with NRAS antibody, Figure 3C
carboxylesterase (CES1) = target: T1, carboxylesterase (CES1) (Homo sapiens, UniProt P23141); test: Cell free hydrolysis by carboxylesterase; format: biochemical; conditions: cell free assay, Figure S13
T1 sequence (P23141 18-567): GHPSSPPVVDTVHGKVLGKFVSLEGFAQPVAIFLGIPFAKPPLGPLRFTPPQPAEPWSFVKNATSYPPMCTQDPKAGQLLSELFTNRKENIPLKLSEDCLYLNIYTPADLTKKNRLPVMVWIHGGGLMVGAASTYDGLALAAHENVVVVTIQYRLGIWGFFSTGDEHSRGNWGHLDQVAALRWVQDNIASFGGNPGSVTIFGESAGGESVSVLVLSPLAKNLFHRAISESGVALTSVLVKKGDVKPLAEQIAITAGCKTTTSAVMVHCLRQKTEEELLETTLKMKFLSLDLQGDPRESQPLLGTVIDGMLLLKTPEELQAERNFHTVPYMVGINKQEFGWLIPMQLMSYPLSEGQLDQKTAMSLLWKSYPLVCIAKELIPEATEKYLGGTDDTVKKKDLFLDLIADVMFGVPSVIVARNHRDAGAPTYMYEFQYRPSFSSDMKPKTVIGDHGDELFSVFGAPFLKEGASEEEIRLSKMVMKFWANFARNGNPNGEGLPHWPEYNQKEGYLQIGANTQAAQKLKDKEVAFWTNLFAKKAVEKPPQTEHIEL

[1] = Critical micelle concentration; format: physicochemical; conditions: Figure 1C
[2] = test system: GA of HeLa, Saos-2, HEK293, MCF-7, HS-5, SJSA-1, HepG2, B16F10, S2 cells; test: CLSM of GA targeting in various cell lines; format: cell-based, Homo sapiens, Mus musculus, Drosophila; conditions: 10 μM, 8 min, Figure 2B
[3] = test system: neutrophils (polymorphonuclear leukocytes); test: GA localization in primary cells; format: cell-based; conditions: Figure S24

Compound: CCCCCCCCCCCCC/C=C/[C@@H](O)[C@H](CO)NC(=O)CCCCCNc1ccc([N+](=O)[O-])c2nonc12 [C6-NBD-ceramide, C6-NBD-Ceramide, reference compound]
accumulation at / targeting of GA (in words) (GA of HeLa cells): shows dim fluorescence over 16 minutes

Compound: CN(CCCCCCNc1ccnc2cc(Cl)ccc12)CCCCCCNc1ccnc2cc(Cl)ccc12 [DC661, reference compound]
effect of thioesterase inhibitor on GA accumulation of C6-NBD-Ceramide (GA of HeLa cells): cannot block the GA accumulation | effect of thioesterase inhibitor on accumulation of 1 at GA (GA of HeLa cells): efficiently block 1 accumulating at GA

Compound: CC(C)(C)C1CCN(C(=O)n2ncc(C(O)(c3ccccc3)c3ccccc3)n2)CC1 [ML211, reference compound]
effect of thioesterase inhibitor on GA accumulation of C6-NBD-Ceramide (GA of HeLa cells): cannot block the GA accumulation | effect of thioesterase inhibitor on accumulation of 1 at GA (GA of HeLa cells): efficiently block 1 accumulating at GA

hydrolysis by carboxylesterase (CES1) (in words) (carboxylesterase (CES1)): able to catalyze the hydrolysis of 1 | critical micelle concentration (CMC) [1]: 2.1 µM
Compound: CC(=O)SCCNC(=O)[C@@H](Cc1ccccc1)NC(=O)[C@@H](Cc1ccccc1)NC(=O)CCNc1ccc([N+](=O)[O-])c2nonc12 [compound 1]
self-assembly seen by TEM (in words) (TEM of self-assembly): self-assembles into nanoparticles and nanofibers | intracellular distribution of NRAS after pretreatment (in words) (NRAS): relocates from mainly plasma membrane to overwhelmingly GA | accumulation at / targeting of GA (in words) (GA of HeLa cells): accumulates primarily at GA | time after addition until GA becomes distinguishable (GA of HeLa cells; Figures S1, S2, video S1): less than 1 min | dependence on clathrin-mediated endocytosis at 2 μM (GA of HeLa cells; HeLa treated with chlorpromazine, 2 μM of 1, Figure S8): hardly | dependence on clathrin-mediated endocytosis at 10 μM (GA of HeLa cells; HeLa treated with chlorpromazine, 10 μM of 1, Figure S8): only slightly | time until fluorescence plateaus outside GA (GA of HeLa cells; HeLa, 10 μM, 60 min, single cell imaging analysis, Figure 1B): > 45 min | enhancement of fluorescence intensity at GA from 1 minute to 8 minutes (GA of HeLa cells; HeLa, Figure S15): at least 3 times | targeting GA of various cells (in words) [2]: able to target GA of various cells from different organisms | entry into primary cells and localization (in words) [3]: localizes at GA
